{
  "source": "patent US6159940A",
  "about": "“Method for modulating hemopoiesis” (Immunotech Developments Inc., priority 1999, dated 2000)",
  "test_system": "karyocytes in femoral bone marrow",
  "test": "Bone marrow regeneration in irradiated mice (4 Gy), scheme 2",
  "format": "in vivo",
  "protocol": "Irradiated mice (4 Gy) received intramuscular injections of the peptide in the dose of 10 μg/kg according to 2 schemes.\nb) According to scheme 2, the peptide injections were made starting from the 3rd day after the irradiation, at the same time of maximum depletion of the pool of mature nucleated cells and the bone marrow. The groups of mice were formed in the same way as in the previous scheme. […] Tables 9 and 10 present the data on karyocyte and lymphocyte counts in blood (per 1 mm^3) of mice treated according to scheme 2.\nThe data in Table 11 reflect the process of bone marrow regeneration in control and test irradiated (4 Gy) mice treated with peptide according to scheme 2. The regeneration was equally intensive in all animal groups till the 11th day, from day 14 to day 18 the nucleated cells counts were considerably higher in the bone marrow of test mice.",
  "data": [
    {"substance": "H-Ile-Glu-Trp-OH", "values": [
      {"measurement": "Karyocyte Count in Femoral Bone Marrow", "setting": "scheme 2, 1 Time, Day 7", "result": "16.4 ± 0.3 × 10^6"},
      {"measurement": "Karyocyte Count in Femoral Bone Marrow", "setting": "scheme 2, 1 Time, Day 11", "result": "17.9 ± 1.8 × 10^6"},
      {"measurement": "Karyocyte Count in Femoral Bone Marrow", "setting": "scheme 2, 1 Time, Day 14", "result": "18.7 ± 1.1 × 10^6"},
      {"measurement": "Karyocyte Count in Femoral Bone Marrow", "setting": "scheme 2, 1 Time, Day 18", "result": "18.0 ± 0.4 × 10^6"},
      {"measurement": "Karyocyte Count in Femoral Bone Marrow", "setting": "scheme 2, 1 Time, Day 21", "result": "22.4 ± 2.2 × 10^6"},
      {"measurement": "Karyocyte Count in Femoral Bone Marrow", "setting": "scheme 2, 2 Times, Day 7", "result": "14.9 ± 1.7 × 10^6"},
      {"measurement": "Karyocyte Count in Femoral Bone Marrow", "setting": "scheme 2, 2 Times, Day 11", "result": "18.6 ± 2.3 × 10^6"},
      {"measurement": "Karyocyte Count in Femoral Bone Marrow", "setting": "scheme 2, 2 Times, Day 14", "result": "14.1 ± 1.7 × 10^6"},
      {"measurement": "Karyocyte Count in Femoral Bone Marrow", "setting": "scheme 2, 2 Times, Day 18", "result": "17.2 ± 1.0 × 10^6"},
      {"measurement": "Karyocyte Count in Femoral Bone Marrow", "setting": "scheme 2, 2 Times, Day 21", "result": "18.9 ± 0.6 × 10^6"},
      {"measurement": "Karyocyte Count in Femoral Bone Marrow", "setting": "scheme 2, 3 Times, Day 7", "result": "12.25 ± 1.3 × 10^6"},
      {"measurement": "Karyocyte Count in Femoral Bone Marrow", "setting": "scheme 2, 3 Times, Day 11", "result": "18.5 ± 2.9 × 10^6"},
      {"measurement": "Karyocyte Count in Femoral Bone Marrow", "setting": "scheme 2, 3 Times, Day 14", "result": "16.9 ± 0.8 × 10^6"},
      {"measurement": "Karyocyte Count in Femoral Bone Marrow", "setting": "scheme 2, 3 Times, Day 18", "result": "16.9 ± 0.8 × 10^6"},
      {"measurement": "Karyocyte Count in Femoral Bone Marrow", "setting": "scheme 2, 3 Times, Day 21", "result": "19.5 ± 1.6 × 10^6"},
      {"measurement": "Karyocyte Count in Femoral Bone Marrow", "setting": "scheme 2, 4 Times, Day 11", "result": "20.3 ± 1.3 × 10^6"},
      {"measurement": "Karyocyte Count in Femoral Bone Marrow", "setting": "scheme 2, 4 Times, Day 14", "result": "18.9 ± 0.2 × 10^6"},
      {"measurement": "Karyocyte Count in Femoral Bone Marrow", "setting": "scheme 2, 4 Times, Day 18", "result": "17.7 ± 1.2 × 10^6"},
      {"measurement": "Karyocyte Count in Femoral Bone Marrow", "setting": "scheme 2, 4 Times, Day 21", "result": "20.0 ± 1.8 × 10^6"}
    ]}
  ]
}
